Assay results published in the supplement of paper PMC11451515.

Test system: SEM cells
Assay: cell viability relative to DMSO control; higher = less cytotoxic
Conditions: 48 h
How it was run: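 Cells were incubated for 48 h at 37°C before CellTiter-Glo One luminescence was read. The cells were NOMO1 or SEM (500 cells/well) or P12-Ichikawa (1000 cells/well) leukemia cells, adapted for at least four passages in each medium and seeded in 1536-well plates (5 μl). Dosing used library compounds in DMSO applied by pin over 11 threefold points, 47 μM to 0.79 nM. Viability is the per-plate percentage of DMSO wells, with cell-free wells as background.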

[1] = HPLM + 10% dialyzed FBS, 0.000781 µM
[2] = HPLM + 10% dialyzed FBS, 0.00234 µM
[3] = HPLM + 10% dialyzed FBS, 0.00702 µM
[4] = HPLM + 10% dialyzed FBS, 0.0211 µM
[5] = HPLM + 10% dialyzed FBS, 0.0632 µM
[6] = HPLM + 10% dialyzed FBS, 0.19 µM
[7] = HPLM + 10% dialyzed FBS, 0.569 µM
[8] = HPLM + 10% dialyzed FBS, 1.71 µM
[9] = HPLM + 10% dialyzed FBS, 5.12 µM
[10] = HPLM + 10% dialyzed FBS, 15.4 µM
[11] = HPLM + 10% dialyzed FBS, 46.1 µM
[12] = RPMI 5 mM glucose + 10% dialyzed FBS, 0.000781 µM
[13] = RPMI 5 mM glucose + 10% dialyzed FBS, 0.00234 µM
[14] = RPMI 5 mM glucose + 10% dialyzed FBS, 0.00702 µM
[15] = RPMI 5 mM glucose + 10% dialyzed FBS, 0.0211 µM
[16] = RPMI 5 mM glucose + 10% dialyzed FBS, 0.0632 µM
[17] = RPMI 5 mM glucose + 10% dialyzed FBS, 0.19 µM
[18] = RPMI 5 mM glucose + 10% dialyzed FBS, 0.569 µM
[19] = RPMI 5 mM glucose + 10% dialyzed FBS, 1.71 µM
[20] = RPMI 5 mM glucose + 10% dialyzed FBS, 5.12 µM
[21] = RPMI 5 mM glucose + 10% dialyzed FBS, 15.4 µM
[22] = RPMI 5 mM glucose + 10% dialyzed FBS, 46.1 µM
[23] = RPMI 5 mM glucose + 10% FBS, 0.000781 µM
[24] = RPMI 5 mM glucose + 10% FBS, 0.00234 µM
[25] = RPMI 5 mM glucose + 10% FBS, 0.00702 µM
[26] = RPMI 5 mM glucose + 10% FBS, 0.0211 µM
[27] = RPMI 5 mM glucose + 10% FBS, 0.0632 µM
[28] = RPMI 5 mM glucose + 10% FBS, 0.19 µM
[29] = RPMI 5 mM glucose + 10% FBS, 0.569 µM
[30] = RPMI 5 mM glucose + 10% FBS, 1.71 µM
[31] = RPMI 5 mM glucose + 10% FBS, 5.12 µM
[32] = RPMI 5 mM glucose + 10% FBS, 15.4 µM
[33] = RPMI 5 mM glucose + 10% FBS, 46.1 µM

Row | Structure (SMILES) | cell viability [1] | cell viability [2] | cell viability [3] | cell viability [4] | cell viability [5] | cell viability [6] | cell viability [7] | cell viability [8] | cell viability [9] | cell viability [10] | cell viability [11] | cell viability [12] | cell viability [13] | cell viability [14] | cell viability [15] | cell viability [16] | cell viability [17] | cell viability [18] | cell viability [19] | cell viability [20] | cell viability [21] | cell viability [22] | cell viability [23] | cell viability [24] | cell viability [25] | cell viability [26] | cell viability [27] | cell viability [28] | cell viability [29] | cell viability [30] | cell viability [31] | cell viability [32] | cell viability [33]
1 | CCC[S+](=O)([O-])Nc1ccc(F)c(C(=O)c2c[nH]c3ncc(Cl)cc23)c1F | 108% | 137% | 121% | 123% | 123% | 121% | 129% | 103% | 107% | 17.9% | 9.67% | 107% | 120% | 117% | 121% | 132% | 131% | 122% | 120% | 121% | 46.9% | 9.16% |  |  |  |  |  |  |  |  |  |  | 
2 | CCn1c(-c2nonc2N)nc2c(C#CC(C)(C)O)ncc(OC[C@H]3CCCNC3)c21 | 78.7% | 83.1% | 87.2% | 86.4% | 75.2% | 82.7% | 76.9% | 66.2% | 70.3% | 43% | 10.5% | 85.8% | 85.2% | 95.8% | 75.7% | 68.6% | 97.1% | 90.7% | 53.9% | 62.8% | 43.6% | 14.1% | 104% | 96.6% | 107% | 94.1% | 75.7% | 99.2% | 96.4% | 64.9% | 77.7% | 60% | 14.8%
3 | CCN(CCO)CCCOc1ccc2c(Nc3cc(CC(=O)Nc4cccc(F)c4)[nH]n3)ncnc2c1 | 118% | 103% | 110% | 119% | 105% | 82.5% | 40.6% | 32.3% | 34.8% | 20.6% | 15.9% | 100% | 113% | 108% | 109% | 104% | 73.8% | 25.5% | 22.2% | 25% | 13.1% | 4.04% | 114% | 94.6% | 118% | 102% | 119% | 76.4% | 22.4% | 19.7% | 21.9% | 12.2% | 5.9%
4 | CCc1cc(C(N)=S)ccn1 | 80.7% | 81.5% | 88% | 86.3% | 91.5% | 92.3% | 90.8% | 89.8% | 91.2% | 54.7% | 84.7% | 94.9% | 99.1% | 89.8% | 106% | 101% | 116% | 102% | 94.5% | 100% | 53.9% | 64.2% | 112% | 103% | 98.1% | 108% | 104% | 107% | 102% | 97.8% | 88.4% | 36.1% | 68.7%
5 | CC(C)(F)C[C@H](N[C@@H](c1ccc(-c2ccc([S+](C)(=O)[O-])cc2)cc1)C(F)(F)F)C(=O)NC1(C#N)CC1 | 88.3% | 93.8% | 93.1% | 96.1% | 95.9% | 91% | 96.3% | 97.5% | 104% | 95.9% | 91.6% | 105% | 117% | 124% | 107% | 119% | 126% | 108% | 114% | 115% | 123% | 103% | 90.4% | 116% | 112% | 117% | 114% | 105% | 93.1% | 109% | 96.5% | 90.3% | 85.8%
6 | OC1=CC2=C(C=C1)C(=O)\C(=C(O2)\C3=CC(=C(O)C=C3)O)O | 103% | 116% | 104% | 93.6% | 102% | 99.5% | 102% | 104% | 104% | 93.2% | 32.9% | 84.9% | 98.1% | 89.9% | 91.6% | 99.2% | 96.5% | 103% | 88.5% | 85.9% | 75.1% | 20.1% | 111% | 113% | 102% | 111% | 117% | 102% | 102% | 97% | 98.2% | 100% | 22.8%
7 | CCCC(C)(COC(N)=O)COC(=O)NC(C)C (stereo not drawn) | 87.5% | 95.9% | 117% | 111% | 139% | 120% | 120% | 131% | 126% | 123% | 130% | 88% | 121% | 144% | 150% | 138% | 128% | 156% | 143% | 139% | 164% | 153% | 97.3% | 113% | 140% | 138% | 127% | 148% | 147% | 163% | 134% | 149% | 160%
8 | O=C([O-])C[C@H](O)C[C@H](O)/C=C/c1c(C2CC2)nc2ccccc2c1-c1ccc(F)cc1 | 82.3% | 73.1% | 97.5% | 102% | 89.1% | 90% | 86.1% | 83.9% | 87.4% | 70% | 18.9% | 99.1% | 81% | 91.7% | 95.9% | 112% | 85% | 79.6% | 97.9% | 94.5% | 69.1% | 13.6% | 99.4% | 85.2% | 99.1% | 97.9% | 108% | 99.4% | 96.7% | 109% | 81.6% | 43.7% | 10.7%
